Source: patent US12371428B2 (Exelixis, Inc., priority 2019, dated 2025)

Assays:
[1] = biological target: Mer (phospho-Mer, MERTK-transfected 293A cells) (Homo sapiens (Human), UniProt Q12866); assay: Mer autophosphorylation ELISA in transient transfected 293A cells (Example H); type: cell-based; details: cellular activity; Mer autophosphorylation ELISA in transient transfected 293A cells
Outline: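 MERTK-transfected 293A; 8-pt dose, 1 h, serum-free, 0.3% DMSO. Cold lysis with orthovanadate and protease/phosphatase inhibitors. Phospho-Mer by DuoSet IC ELISA vs phospho-Mer standard. IC50: 4-PL fit; DMSO = 100%, reference inhibitor = 0%.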

[2] = biological target: Met (phospho-Met, HGF-stimulated PC-3 prostate cancer cells) (Homo sapiens (Human), UniProt P08581); assay: Met autophosphorylation ELISA in PC-3 cells (Example F); type: cell-based; details: cellular activity; Met autophosphorylation ELISA in PC-3 cells; read-out: c-Met IC50
Outline: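 Compounds were tested on HGF-stimulated PC-3 cells. After 24 h culture and 3 h serum starvation, cells got compound for 1 h and 100 ng/mL HGF for 10 min, and Met tyrosine phosphorylation was measured by ELISA.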

[3] = biological target: Human MER (residues 528-999) (Homo sapiens (Human), UniProt Q12866); assay: Human Mer kinase assay, HTRF KinEase (Example C-2); type: biochemical; details: protocol of Example C-2 (other compounds)
Outline: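 HTRF KinEase TK assay with MER 528-999 (1 ng/well) in enzymatic buffer plus 5 mM MgCl2 and 1 mM DTT, biotinylated peptide substrate and ATP at Km (40 μM), 3% DMSO final, 60 min at room temperature. Stopped with EDTA detection mix (SA-XL665, TK antibody-Eu3+), read at 665/620 nm after 60 min; IC50 from 10-point 4-parameter fit, normalized to DMSO and 1 μM reference.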

[4] = biological target: Human KDR (residues 790-1356) (Homo sapiens (Human), UniProt P35968); assay: Human KDR kinase assay, HTRF KinEase (Example B-2); type: biochemical; details: protocol of Example B-2 (other compounds)
Outline: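 Ten compound concentrations (3% DMSO final) were pre-plated, then KDR (790-1356) with biotinylated peptide in Mg/Mn/DTT buffer was added; ATP at Km (4.0 μM) started a 40 min room-temperature reaction. Detection used Eu-TK antibody and SA-XL665 in EDTA buffer; activity normalized to DMSO and reference inhibitor, IC50 by logistic fit.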

Chain of Human KDR (residues 790-1356) (P35968 790-1356): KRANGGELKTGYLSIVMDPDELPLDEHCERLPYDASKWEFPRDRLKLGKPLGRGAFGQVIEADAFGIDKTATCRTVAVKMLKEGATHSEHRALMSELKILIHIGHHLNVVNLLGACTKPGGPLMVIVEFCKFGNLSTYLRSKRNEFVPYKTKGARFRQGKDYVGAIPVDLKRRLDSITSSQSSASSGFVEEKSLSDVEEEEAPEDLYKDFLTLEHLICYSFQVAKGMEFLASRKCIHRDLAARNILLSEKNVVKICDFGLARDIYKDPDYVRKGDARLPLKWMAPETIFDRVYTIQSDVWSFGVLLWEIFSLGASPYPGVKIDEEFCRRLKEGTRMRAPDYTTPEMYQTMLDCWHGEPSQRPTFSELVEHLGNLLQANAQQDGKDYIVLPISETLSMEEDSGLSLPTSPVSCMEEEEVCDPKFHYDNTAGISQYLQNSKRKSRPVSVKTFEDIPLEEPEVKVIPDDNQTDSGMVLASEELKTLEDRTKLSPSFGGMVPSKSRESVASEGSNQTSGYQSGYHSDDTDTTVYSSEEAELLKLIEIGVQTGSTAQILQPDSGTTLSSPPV
Chain of Mer (phospho-Mer, MERTK-transfected 293A cells) (Q12866 21-999): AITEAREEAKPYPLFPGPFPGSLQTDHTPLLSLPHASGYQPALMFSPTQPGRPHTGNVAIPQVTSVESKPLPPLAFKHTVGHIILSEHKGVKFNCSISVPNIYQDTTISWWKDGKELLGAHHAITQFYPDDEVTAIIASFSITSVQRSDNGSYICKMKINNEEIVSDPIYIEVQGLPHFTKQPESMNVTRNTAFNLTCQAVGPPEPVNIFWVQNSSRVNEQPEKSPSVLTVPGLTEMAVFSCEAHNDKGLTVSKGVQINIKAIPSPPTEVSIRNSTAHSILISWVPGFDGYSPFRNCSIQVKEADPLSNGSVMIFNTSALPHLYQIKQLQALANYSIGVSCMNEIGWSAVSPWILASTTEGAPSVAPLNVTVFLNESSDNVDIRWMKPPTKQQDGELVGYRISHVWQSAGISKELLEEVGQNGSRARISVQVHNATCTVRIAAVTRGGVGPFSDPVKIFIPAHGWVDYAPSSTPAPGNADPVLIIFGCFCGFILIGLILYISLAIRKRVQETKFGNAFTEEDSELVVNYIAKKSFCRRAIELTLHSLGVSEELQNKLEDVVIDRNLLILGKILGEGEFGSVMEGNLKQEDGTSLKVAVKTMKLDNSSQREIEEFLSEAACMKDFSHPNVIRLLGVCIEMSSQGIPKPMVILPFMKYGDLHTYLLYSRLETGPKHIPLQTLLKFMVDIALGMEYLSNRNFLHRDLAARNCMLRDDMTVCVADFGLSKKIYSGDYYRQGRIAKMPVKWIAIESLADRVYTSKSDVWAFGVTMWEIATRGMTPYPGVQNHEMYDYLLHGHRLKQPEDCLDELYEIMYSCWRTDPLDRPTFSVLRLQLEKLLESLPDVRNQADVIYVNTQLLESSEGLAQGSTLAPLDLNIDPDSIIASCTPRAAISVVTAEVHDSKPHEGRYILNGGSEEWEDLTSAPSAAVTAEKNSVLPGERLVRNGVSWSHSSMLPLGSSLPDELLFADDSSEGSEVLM
Chain of Met (phospho-Met, HGF-stimulated PC-3 prostate cancer cells) (P08581 25-1390): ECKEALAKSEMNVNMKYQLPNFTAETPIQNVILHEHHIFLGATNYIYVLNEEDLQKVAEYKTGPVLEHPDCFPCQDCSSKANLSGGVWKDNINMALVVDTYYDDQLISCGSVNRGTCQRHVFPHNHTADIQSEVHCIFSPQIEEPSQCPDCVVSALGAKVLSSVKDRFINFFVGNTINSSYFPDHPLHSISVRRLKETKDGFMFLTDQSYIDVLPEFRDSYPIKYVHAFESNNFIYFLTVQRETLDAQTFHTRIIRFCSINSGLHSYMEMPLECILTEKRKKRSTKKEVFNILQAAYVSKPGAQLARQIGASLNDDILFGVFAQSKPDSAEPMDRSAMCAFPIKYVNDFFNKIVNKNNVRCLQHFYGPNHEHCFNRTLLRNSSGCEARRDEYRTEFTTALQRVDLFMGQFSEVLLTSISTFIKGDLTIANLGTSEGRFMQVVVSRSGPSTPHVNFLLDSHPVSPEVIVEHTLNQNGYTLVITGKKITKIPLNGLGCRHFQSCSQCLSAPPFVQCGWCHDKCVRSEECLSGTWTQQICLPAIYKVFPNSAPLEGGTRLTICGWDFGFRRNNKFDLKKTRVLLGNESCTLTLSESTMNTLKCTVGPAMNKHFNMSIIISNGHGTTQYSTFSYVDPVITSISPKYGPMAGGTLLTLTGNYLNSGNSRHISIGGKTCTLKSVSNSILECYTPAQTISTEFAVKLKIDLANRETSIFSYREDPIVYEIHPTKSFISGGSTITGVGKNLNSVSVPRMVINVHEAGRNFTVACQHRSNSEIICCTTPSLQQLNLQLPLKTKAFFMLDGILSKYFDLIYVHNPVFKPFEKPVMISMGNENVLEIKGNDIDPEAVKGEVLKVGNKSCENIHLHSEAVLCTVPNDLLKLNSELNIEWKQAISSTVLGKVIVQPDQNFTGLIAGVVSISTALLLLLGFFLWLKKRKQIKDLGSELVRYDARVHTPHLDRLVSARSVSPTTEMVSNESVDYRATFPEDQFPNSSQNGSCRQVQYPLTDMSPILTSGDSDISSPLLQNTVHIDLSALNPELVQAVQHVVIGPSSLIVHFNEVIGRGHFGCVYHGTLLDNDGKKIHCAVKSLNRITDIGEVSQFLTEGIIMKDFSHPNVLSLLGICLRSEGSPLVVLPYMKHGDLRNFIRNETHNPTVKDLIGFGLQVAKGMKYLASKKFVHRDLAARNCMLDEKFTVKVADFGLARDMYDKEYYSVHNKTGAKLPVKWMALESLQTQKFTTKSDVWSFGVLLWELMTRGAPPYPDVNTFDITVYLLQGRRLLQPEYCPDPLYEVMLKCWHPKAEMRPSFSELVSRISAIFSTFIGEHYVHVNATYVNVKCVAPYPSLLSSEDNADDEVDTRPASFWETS
Chain of Human MER (residues 528-999) (Q12866 528-999): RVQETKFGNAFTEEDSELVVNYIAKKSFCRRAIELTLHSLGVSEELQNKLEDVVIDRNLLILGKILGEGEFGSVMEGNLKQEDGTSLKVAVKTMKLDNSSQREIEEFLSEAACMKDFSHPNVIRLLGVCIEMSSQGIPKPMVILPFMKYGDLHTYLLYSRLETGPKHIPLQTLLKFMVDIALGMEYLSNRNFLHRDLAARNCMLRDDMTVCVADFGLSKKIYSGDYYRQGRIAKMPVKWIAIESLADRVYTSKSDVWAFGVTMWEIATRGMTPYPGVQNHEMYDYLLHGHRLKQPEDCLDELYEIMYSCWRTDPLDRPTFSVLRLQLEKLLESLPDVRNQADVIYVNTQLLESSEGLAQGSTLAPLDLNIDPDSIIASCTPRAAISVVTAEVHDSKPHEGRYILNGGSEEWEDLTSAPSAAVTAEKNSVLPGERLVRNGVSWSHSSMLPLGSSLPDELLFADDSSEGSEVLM

Row | SMILES | IC50 [1] [nM] | IC50 [2] [nM] | IC50 [3] [nM] | IC50 [4] [nM]
1 | COc1cnc2c(Oc3ccc(NC(=O)c4c(C)ccn(-c5ccc(F)cc5)c4=O)cc3)ccnc2c1 [Compound 300, 1-(4-Fluorophenyl)-N-[4-[(7-methoxy-1,5-naphthyridin-4-yl)oxy]phenyl]-4-methyl-2-oxopyridine-3-carboxamide] | < 100 | < 100 | < 100 | 100 to 300
2 | COc1ccc2nccc(Oc3ccc(NC(=O)c4c(C)nc(C)c(-c5ccc(F)cc5)c4O)cc3)c2n1 [Compound 340, 5-(4-fluorophenyl)-4-hydroxy-N-[4-[(6-methoxy-1,5-naphthyridin-4-yl)oxy]phenyl]-2,6-dimethylpyridine-3-carboxamide] | < 100 | < 100 | < 100 | < 100
3 | COc1ccc2nccc(Oc3ccc(NC(=O)c4cn(C(C)C)c(C)c(-c5ccc(F)cc5)c4=O)cc3)c2n1 [Compound 341, 5-(4-fluorophenyl)-N-[4-[(6-methoxy-1,5-naphthyridin-4-yl)oxy]phenyl]-6-methyl-4-oxo-1-propan-2-ylpyridine-3-carboxamide] | < 100 | < 100 | < 100 | > 300
4 | COc1ccc2nccc(Oc3ccc(NC(=O)c4ccc(C)n(-c5ccc(F)cc5)c4=O)cc3F)c2c1 [Compound 346, N-[3-fluoro-4-(6-methoxyquinolin-4-yl)oxyphenyl]-1-(4-fluorophenyl)-6-methyl-2-oxopyridine-3-carboxamide] | < 100 | < 100 | < 100 | 100 to 300
5 | COc1ccc2nccc(Oc3ccc(NC(=O)c4cnc(C)c(-c5ccc(F)cc5)c4O)cc3F)c2c1 [Compound 347, N-[3-fluoro-4-(6-methoxyquinolin-4-yl)oxyphenyl]-5-(4-fluorophenyl)-4-hydroxy-6-methylpyridine-3-carboxamide] | < 100 | < 100 | < 100 | 100 to 300
6 | Cc1ccc(C(=O)Nc2ccc(Oc3ccnc4ccc(OCCN5CCOCC5)nc34)c(F)c2)c(=O)n1-c1ccc(F)cc1 [Compound 351, N-[3-fluoro-4-[[6-(2-morpholin-4-ylethoxy)-1,5-naphthyridin-4-yl]oxy]phenyl]-1-(4-fluorophenyl)-6-methyl-2-oxopyridine-3-carboxamide] | < 100 | < 100 | < 100 | > 300
7 | Cc1ncc(C(=O)Nc2ccc(Oc3ccnc4ccc(OCCN5CCOCC5)nc34)c(F)c2)c(O)c1-c1ccc(F)cc1 [Compound 352, N-[3-fluoro-4-[[6-(2-morpholin-4-ylethoxy)-1,5-naphthyridin-4 yl]oxy]phenyl]-5-(4-fluorophenyl)-4-hydroxy-6-methylpyridine-3-carboxamide] | < 100 | < 100 | < 100 | 100 to 300
8 | Cc1ccc(C(=O)Nc2ccc(Oc3ccnc4ccc(OCCN(C)C)nc34)c(F)c2)c(=O)n1-c1ccc(F)cc1 [Compound 353, N-[4-[[6-[2-(dimethylamino)ethoxy]-1,5-naphthyridin-4-yl]oxy]-3-fluorophenyl]-1-(4-fluorophenyl)-6-methyl-2-oxopyridine-3-carboxamide] | < 100 | < 100 | < 100 | > 300
9 | COc1cc2nccc(Oc3ccc(NC(=O)c4nn(C(C)C)c(C)c(-c5ccc(F)cc5)c4=O)cc3F)c2nc1OC [Compound 364, N-[4-[(6,7-dimethoxy-1,5-naphthyridin-4-yl)oxy]-3-fluorophenyl]-5-(4-fluorophenyl)-6-methyl-4-oxo-1-propan-2-ylpyridazine-3-carboxamide] | < 100 | < 100 | < 100 | < 100
10 | C=C(C)c1cc(C(=O)Nc2ccc(Oc3ccnc4cc(OC)c(OC)nc34)c(F)c2)c(=O)n(-c2ccc(F)cc2)c1C [Compound 367, N-[4-[(6,7-dimethoxy-1,5-naphthyridin-4-yl)oxy]-3-fluorophenyl]-1-(4-fluorophenyl)-6-methyl-2-oxo-5-prop-1-en-2-ylpyridine-3-carboxamide] | < 100 | < 100 | < 100 | > 300
11 | COc1cc2nccc(Oc3ccc(NC(=O)c4cc(C)c(C)n(-c5ccc(F)cc5)c4=O)cc3F)c2nc1OC [Compound 370, N-[4-[(6,7-dimethoxy-1,5-naphthyridin-4-yl)oxy]-3-fluorophenyl]-1-(4-fluorophenyl)-5,6-dimethyl-2-oxopyridine-3-carboxamide] | < 100 | < 100 | < 100 | < 100

Next, values leading:

Row | IC50 [1] [nM] | IC50 [2] [nM] | IC50 [3] [nM] | IC50 [4] [nM] | SMILES
12 | < 100 | < 100 | < 100 | < 100 | COCc1ncc(C(=O)Nc2ccc(Oc3ccnc4cc(OC)c(OC)nc34)c(F)c2)c(O)c1-c1ccc(F)cc1 [Compound 301, N-[4-[(6,7-Dimethoxy-1,5-naphthyridin-4-yl)oxy]-3-fluorophenyl]-5-(4-fluorophenyl)-4-hydroxy-6-(methoxymethyl)pyridine-3-carboxamide]
13 | < 100 | < 100 | < 100 | 100 to 300 | COc1ccc2nccc(Oc3ccc(NC(=O)c4cnc(C)c(-c5ccc(F)cc5)c4O)cc3)c2n1 [Compound 342, 5-(4-fluorophenyl)-4-hydroxy-N-[4-[(6-methoxy-1,5-naphthyridin-4-yl)oxy]phenyl]-6-methylpyridine-3-carboxamide]
14 | < 100 | < 100 | < 100 | 100 to 300 | COc1ccc2nccc(Oc3ccc(NC(=O)c4ccc(C)n(-c5ccc(F)cc5)c4=O)cc3)c2n1 [Compound 343, 1-(4-fluorophenyl)-N-[4-[(6-methoxy-1,5-naphthyridin-4-yl)oxy]phenyl]-6-methyl-2-oxopyridine-3-carboxamide]
15 | < 100 | < 100 | < 100 | 100 to 300 | COc1ccc2nccc(Oc3ccc(NC(=O)c4c(C)nc(C)c(-c5ccc(F)cc5)c4O)cc3F)c2c1 [Compound 345, N-[3-fluoro-4-(6-methoxyquinolin-4-yl)oxyphenyl]-5-(4-fluorophenyl)-4-hydroxy-2,6-dimethylpyridine-3-carboxamide]
16 | < 100 | < 100 | < 100 | 100 to 300 | COCCOc1ccc2nccc(Oc3ccc(NC(=O)c4ccc(C)n(-c5ccc(F)cc5)c4=O)cc3F)c2n1 [Compound 350, N-[3-fluoro-4-[[6-(2-methoxyethoxy)-1,5-naphthyridin-4-yl]oxy]phenyl]-1-(4-fluorophenyl)-6-methyl-2-oxopyridine-3-carboxamide]
17 | < 100 | < 100 | < 100 | 100 to 300 | Cc1nc(C)c(-c2ccc(F)cc2)c(O)c1C(=O)Nc1ccc(Oc2ccnc3ccc(OCCN(C)C)nc23)c(F)c1 [Compound 354, N-[4-[[6-[2-(dimethylamino)ethoxy]-1,5-naphthyridin-4-yl]oxy]-3-fluorophenyl]-5-(4-fluorophenyl)-4-hydroxy-2,6-dimethylpyridine-3-carboxamide]
18 | < 100 | < 100 | < 100 | < 100 | Cc1nc(C)c(-c2ccc(F)cc2)c(O)c1C(=O)Nc1ccc(Oc2ccnc3ccc(OCCN4CCOCC4)nc23)c(F)c1 [Compound 355, N-[3-fluoro-4-[[6-(2-morpholin-4-ylethoxy)-1,5-naphthyridin-4-yl)oxy]phenyl]-5-(4-fluorophenyl)-4-hydroxy-2,6-dimethylpyridine-3-carboxamide]
19 | < 100 | < 100 | < 100 | > 300 | COc1ccc2nccc(Oc3ccc(NC(=O)c4cn(C)c(C)c(-c5ccc(F)cc5)c4=O)cc3)c2n1 [Compound 356, 5-(4-fluorophenyl)-N-[4-[(6-methoxy-1,5-naphthyridin-4-yl)oxy]phenyl]-1,6-dimethyl-4-oxopyridine-3-carboxamide]
20 | < 100 | < 100 | < 100 | 100 to 300 | COc1cc2nccc(Oc3ccc(NC(=O)c4cc(C(C)C)c(C)n(-c5ccc(F)cc5)c4=O)cc3F)c2nc1OC [Compound 368, N-[4-[(6,7-dimethoxy-1,5-naphthyridin-4-yl)oxy]-3-fluorophenyl]-1-(4-fluorophenyl)-6-methyl-2-oxo-5-propan-2-ylpyridine-3-carboxamide]
21 | < 100 | < 100 | < 100 | 100 to 300 | CCOc1c(C(=O)Nc2ccc(Oc3ccnc4cc(OC)c(OC)nc34)c(F)c2)c(=O)c(-c2ccc(F)cc2)c(C)n1C [Compound 369, N-[4-[(6,7-dimethoxy-1,5-naphthyridin-4-yl)oxy]-3-fluorophenyl]-2-ethoxy-5-(4-fluorophenyl)-1,6-dimethyl-4-oxopyridine-3-carboxamide]
